Test results published in patent US6518035B1, “Targeted methods of drug screening using co-culture methods” (Rosetta Inpharmatics, Inc., priority 1998, dated 2003).
Where a name gives a salt, the structure may show the parent alone. Read-outs that look alike come from different tables or passages of the source.

Experiments:
[1] = test system: yeast target and decoy cells; experiment: Growth (O.D.600) of the target/decoy yeast co-cultures in the MicroSource library screen; assay type: cell-based, Saccharomyces cerevisiae; conditions: both concentrations (5 μg/ml and 0.5 μg/ml)
Procedure: The plates were incubated at 30° C.

[2] = biological target: T1, ERG11 gene product, lanosterol 14α-demethylase (Saccharomyces cerevisiae, UniProt P10614); experiment: TDS co-culture pilot study with clotrimazole: ERG11/GFP-overexpressing target cells mixed with decoy cells, fluorescence readout; assay type: cell-based; conditions: 30° C., 88 h
T1 construct: expressed in transfected cells; host or cells: S. cerevisiae target strain ABY676 (plasmids pAB98 GFP, pAB99 ERG11), co-cultured with decoy strain ABY674 (empty vectors YEplac195, YEplac112)
T1 sequence (P10614 whole entry): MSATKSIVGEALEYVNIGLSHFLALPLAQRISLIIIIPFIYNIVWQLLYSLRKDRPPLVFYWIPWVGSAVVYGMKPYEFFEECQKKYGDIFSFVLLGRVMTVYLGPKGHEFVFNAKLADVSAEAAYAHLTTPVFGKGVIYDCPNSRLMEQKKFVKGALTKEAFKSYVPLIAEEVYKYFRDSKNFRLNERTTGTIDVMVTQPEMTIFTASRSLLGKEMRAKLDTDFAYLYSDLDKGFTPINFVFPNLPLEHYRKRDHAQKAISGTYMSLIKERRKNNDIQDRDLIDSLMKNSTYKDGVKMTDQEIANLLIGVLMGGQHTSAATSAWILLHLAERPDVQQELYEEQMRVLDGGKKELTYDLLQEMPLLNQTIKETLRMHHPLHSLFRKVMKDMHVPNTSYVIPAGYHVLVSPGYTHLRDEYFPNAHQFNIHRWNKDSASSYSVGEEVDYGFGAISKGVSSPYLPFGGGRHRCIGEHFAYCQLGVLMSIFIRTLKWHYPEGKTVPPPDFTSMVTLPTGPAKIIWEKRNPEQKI
Procedure: FIG. 2: A Signal to noise ratios of ERG11-target and decoy co-cultures grown in the presence of clotrimazole. Cultures were prepared at various ratios of target: decoy cells (columns). Each ratio was also prepared at various total number of cells per well and are indicated at the top. Clotrimazole, which inhibits the ERG11 gene product, was introduced by serial dilution (rows). The concentrations of clotrimazole are indicated to the left of the table. The volume of medium in each well was 0.225 ml. The plate was allowed to incubate at 30° C. for 88 h. Fluorescence signal was determined by subtracting the fluorescent values from a medium control plate from the fluorescence values of each well in the test plate. Signal to noise ratios were determined by dividing these corrected values with the corresponding values in the no-drug well in the bottom row. B O.D.600 values of co-cultures in each well after growth. C A fluorescent image of the source plate.
To determine the optimal assay conditions, various target:decoy ratios were tested in the presence of different clotrimazole concentrations (FIG. 2). Clotrimazole is an anti-fungal compound that inhibits the […] gene product, lanosterol 14α-demethylase, a sterol biosynthetic enzyme (Georgopapadakou and Walsh, 1996, Antimicrob Agents Chemother 40:279-291). […]
Target and decoy cells were mixed at 1:10, 1:100 and 1:1000 ratios in the presence of various concentrations of clotrimazole. […] Following incubation at 30° C. for 88 h, the fluorescence from each well was determined. The fluorescent values were corrected for the background fluorescence of the medium are represented as the fold increase over the fluorescent signal from the corresponding no-drug treatment.
The amount of growth of the cells was determined by measuring optical density at 600 nm in a Molecular Devices Spectra Max 250 plate spectrophotometer (FIG. 2B). A fluorescent image of the plate, which served as the source for quantitation of the fluorescent signals, is also presented (FIG. 2C).

Erg11p = Erg11p (Saccharomyces cerevisiae, UniProt P10614); conditions: 25 target and 25,000 decoy cells (1:1000), 225 μl, 30° C., up to ten days
Chain of Erg11p (P10614 whole entry): as above
Procedure: Target yeast cells overexpressing the ERG11 gene and GFP were mixed with decoy cells at a ratio of 1:1000 and portioned into 96-well plates. Each well contained 25 target cells and 25,000 decoy cells in 0.225 ml YM medium plus 2% casamino acids. 560 generic drugs from the MicroSource™ library were dispensed to each well to a final concentration of 5 μg/ml or 0.5 μg/ml and 1% DMSO. The plates were incubated at 30° C. for ten days.
To determine the specificity of the TDS assay, a chemical library of 560 compounds was screened using the same strains described in FIG. 2. […] The conditions chosen for the co-culture were 25 target cells and 25,000 decoy cells (1:1000 target: decoy ratio) in a volume of 225 μl.
Overnight cultures of the target and decoy cells were grown in YM medium plus 2% casamino acids to maintain selection for both episomal plasmids. One large batch of fresh medium (YM-Cas) was prepared that contained both target and decoy cells. This culture was diluted to 1×10^5 cells/ml and dispensed into the 96-well plates. Drugs from the Microsource library were then added to the cultures at two concentrations: 5 μg/ml plus 1% DMSO; and 0.5 μg/ml plus 0.1% DMSO. The plates were incubated at 30° C. Fluorescence and O.D.600 measurements were taken twice daily for ten days.

Row | Structure (SMILES) | growth inhibition of co-culture [1] | fluorescent signal of co-culture versus no-drug treatment (Erg11p; 0.5 μg/ml drug plus 0.1% DMSO) | fluorescent signal of co-culture versus no-drug treatment (Erg11p; 5 μg/ml drug plus 1% DMSO) | further results
1 | CN[C@@H](C)[C@H](O)c1ccccc1 [ephedrine-HCl] | severely inhibited growth |  |  | 
2 | Clc1ccccc1C(c1ccccc1)(c1ccccc1)n1ccnc1 [clotrimazole] |  | significant fluorescent signal | significant fluorescent signal | clotrimazole concentration range producing significant fluorescent signals ([2]; 1:10 and 1:100 target:decoy ratios, highest density of cells per well): 0.2 to 5.6 µg/mL; clotrimazole concentration range producing significant fluorescent signals ([2]; 1:10 and 1:100 target:decoy ratios, serial dilutions of cells): 0.2 to 2.8 µg/mL; clotrimazole concentration range producing significant fluorescent signals ([2]; 1:1000 target:decoy ratio, each of the cell densities): 0.2 to 5.6 µg/mL
3 | CCCCOc1ccc(C(=O)CCN2CCCCC2)cc1 [dyclonine-HCl] | severely inhibited growth |  |  | 
4 | C[CH2][Hg][S]c1ccccc1C(=O)[O-].[Na+] [thimerosol] | severely inhibited growth |  |  | 
5 | CC(=O)N1CCN(c2ccc(OCC3COC(Cn4ccnc4)(c4ccc(Cl)cc4Cl)O3)cc2)CC1 (stereo not drawn) [ketoconazole] |  | neither inhibited growth nor produced a positive signal | significant signal | 
6 | Clc1ccc(COC(Cn2ccnc2)c2ccc(Cl)cc2Cl)c(Cl)c1 (stereo not drawn) [miconazole] |  | significant positive signals | too severe a growth inhibition to produce positive signals | 
